# Source: PubChem BioAssay AID1963838 (Molecular Pharmacology Branch, DTP, NCI, 2024)
# System: 855422-203-R-J1-PDC complex spheroid viability
# Assay: Anticancer human tumor 855422-203-R-J1-PDC patient-derived bladder carcinoma cell line growth inhibition [POLQ]
# Settings: for IC50: curve of first compound; for viability, T/C: stronger effect = lower value
# Experimental: Multicellular complex tumor spheroid response to Polymerase (POL) inhibitors (novobiocin, ART-558, RP6685) in combination with a variety of drugs and investigational agents in selected tumor cell lines
# The POL inhibitors (novobiocin, ART-558, and RP6685) were evaluated both individually and in combination with standard of care and investigational anticancer small molecules within a complex spheroid model of solid tumors. . Complex spheroids include a stromal component modeled by human endothelial cells (HUVEC) and fibroblasts modeled by human mesenchymal stem cells (MSCs). The concentration ranges selected for each drug and investigational agent were based upon clinically achievable concentrations if the clinical Cmax of the agent was known.
# Compounds. The drugs and investigational agents: novobiocin (NSC847541), ART-558 (NSC835418), RP-6685 (NSC848927), peposertib (NSC802822), ceralasertib (NSC780249), elimusertib (NSC800525), camonsertib (NSC841442), AZD-1390 (NSC803789), olaparib (NSC753686), talazoparib (NSC767125), rucaparib (NSC756644), sotorasib (NSC818433), MRTX-1133 (NSC836407), SN-38 (NSC673596), topotecan (NSC609699), epotoside (NSC141540), doxorubicin (NSC123127), gemcitabine (NSC613327), 5-fluorouracil (NSC19893), paclitaxel (NSC125973), vemurafenib (NSC761431), MSA-2 (NSC828583), SN-011 (NSC837082), adavosertib (NSC754352), prexasertib (NSC758257), carboplatin (NSC241240) and oxaliplatin (NSC266046), were obtained from the National Cancer Institute (NCI) Developmental Therapeutics Program Chemical Repository (21). The FDA-approved anticancer drug set is available from the Developmental Therapeutics Program at https://dtp.cancer.gov/organization/dscb/obtaining/. […] The stock solutions were prepared in dimethyl sulfoxide (DMSO, Sigma-Aldrich, St. Louis, MO, cat. D2650), except for the platinum compounds which were prepared in saline (Quality Biological, Gaithersburg, MD, cat. 114-055-101), at 800-fold the tested concentration and stored at -70 degrees C prior to their use. All drugs and investigational agents were tested over a range starting from a high concentration at or near the clinical Cmax and decreasing in half-log increments. If the clinical Cmax for an agent had not been determined, the highest concentration tested was 10 microM, except for SN-38, which was tested at a high concentration of 1 microM.
# Cell Culture. All cells were maintained in an incubator at 37 degrees C and 5% CO2 with 95% humidity. The PDC lines were cultured according to standard operating procedures established by the NCI PDMR (https://pdmr.cancer.gov). Table 3 of the manuscript, lists the cell lines along with the number of the three cell types plated to form the mct-spheroids and media for tumor cell growth. After thawing, all PDC lines, except 997537-175-T-J1-PDC and 415267-285-R-J2-PDC, were cultured in Matrigel-coated flasks prepared with a working solution of 1X Ham's F-12 nutrient mix, without supplementation (Thermo Fisher Scientific, cat. 11765054), 100 U/mL penicillin-streptomycin (Thermo Fisher Scientific, cat. 15140122), and 2.5% Matrigel (Corning Inc., Corning, NY, cat. 354248) for the first three passages. The two PDC lines 997537-175-T-J1-PDC and 415267-285-R-J2-PDC were cultured on uncoated flasks. The 857933-349-R-J2-PDC line was cultured in 6C/Colon 1B media containing advanced DMEM/F-12 (Thermo Fisher Scientific, cat. 12634028), 10 mM HEPES (Thermo Fisher Scientific, cat. 15630080), 1X GlutaMAX supplement (Thermo Fisher Scientific, cat. 35050061), 0.1 mg/mL primocin (InvivoGen, San Diego, CA, cat. ant-pm-2), 10% defined fetal bovine serum, heat inactivated (HyClone Laboratories Inc., Logan, UT, cat. SH30070.03HI), 50% L-WRN conditioned media (ATCC, cat. CRL-3276), 1.25 mM N-Acetyl-L-cysteine (Sigma-Aldrich, cat. A9165), 10 mM nicotinamide (Sigma-Aldrich, cat. N0636), 1X B-27 supplement (Thermo Fisher Scientific, cat. 17504044), 1X N-2 supplement (Thermo Fisher Scientific, cat. […]
# [1] = second compound 0.0316 µM, first compound 0.0316 µM
# [2] = second compound 0.0316 µM, first compound 0.1 µM
# [3] = second compound 0.0316 µM, first compound 0.316 µM
# [4] = second compound 0.0316 µM, first compound 1 µM
# [5] = second compound 0.0316 µM, first compound 3.16 µM
# [6] = second compound 0.0316 µM, first compound 10 µM
# [7] = second compound 0.1 µM, first compound 0.0316 µM
# [8] = second compound 0.1 µM, first compound 0.1 µM
# [9] = second compound 0.1 µM, first compound 0.316 µM
# [10] = second compound 0.1 µM, first compound 1 µM
# [11] = second compound 0.1 µM, first compound 3.16 µM
# [12] = second compound 0.1 µM, first compound 10 µM
# [13] = second compound 0.316 µM, first compound 0.0316 µM
# [14] = second compound 0.316 µM, first compound 0.1 µM
# [15] = second compound 0.316 µM, first compound 0.316 µM
# [16] = second compound 0.316 µM, first compound 1 µM
# [17] = second compound 0.316 µM, first compound 3.16 µM
# [18] = second compound 0.316 µM, first compound 10 µM
# [19] = second compound 1 µM, first compound 0.0316 µM
# [20] = second compound 1 µM, first compound 0.1 µM
# [21] = second compound 1 µM, first compound 0.316 µM
# [22] = second compound 1 µM, first compound 1 µM
# [23] = second compound 1 µM, first compound 3.16 µM
# [24] = second compound 1 µM, first compound 10 µM
# [25] = second compound 3.16 µM, first compound 0.0316 µM
# [26] = second compound 3.16 µM, first compound 0.1 µM
# [27] = second compound 3.16 µM, first compound 0.316 µM
# [28] = second compound 3.16 µM, first compound 1 µM
# [29] = second compound 3.16 µM, first compound 3.16 µM
# [30] = second compound 3.16 µM, first compound 10 µM
# [31] = second compound 10 µM, first compound 0.0316 µM
# [32] = second compound 10 µM, first compound 0.1 µM
# [33] = second compound 10 µM, first compound 0.316 µM
# [34] = second compound 10 µM, first compound 1 µM
# [35] = second compound 10 µM, first compound 3.16 µM
# [36] = second compound 10 µM, first compound 10 µM
# 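Note: spheroids exposed to compounds for seven days before readout.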
smiles,measurement,setting,value
CNCc1ccc(-c2[nH]c3cc(F)cc4c3c2CCNC4=O)cc1 + COC1C(OC(N)=O)C(O)C(Oc2ccc3c(O)c(NC(=O)c4ccc(O)c(CC=C(C)C)c4)c(=O)oc3c2C)OC1(C)C,IC50,second compound 0.0316 µM,> 10000 nM
same,IC50,second compound 0.1 µM,> 10000 nM
same,IC50,second compound 0.316 µM,> 10000 nM
same,IC50,second compound 1 µM,> 10000 nM
same,IC50,second compound 3.16 µM,> 10000 nM
same,IC50,second compound 10 µM,> 10000 nM
same,"viability, T/C",[1],93.5%
same,"viability, T/C",[2],104%
same,"viability, T/C",[3],125%
same,"viability, T/C",[4],106%
same,"viability, T/C",[5],107%
same,"viability, T/C",[6],105%
same,"viability, T/C",[7],110%
same,"viability, T/C",[8],108%
same,"viability, T/C",[9],98%
same,"viability, T/C",[10],109%
same,"viability, T/C",[11],100%
same,"viability, T/C",[12],110%
same,"viability, T/C",[13],91.3%
same,"viability, T/C",[14],97.8%
same,"viability, T/C",[15],99.5%
same,"viability, T/C",[16],104%
same,"viability, T/C",[17],105%
same,"viability, T/C",[18],118%
same,"viability, T/C",[19],104%
same,"viability, T/C",[20],107%
same,"viability, T/C",[21],110%
same,"viability, T/C",[22],107%
same,"viability, T/C",[23],117%
same,"viability, T/C",[24],104%
same,"viability, T/C",[25],106%
same,"viability, T/C",[26],92%
same,"viability, T/C",[27],112%
same,"viability, T/C",[28],109%
same,"viability, T/C",[29],104%
same,"viability, T/C",[30],109%
same,"viability, T/C",[31],110%
same,"viability, T/C",[32],101%
same,"viability, T/C",[33],111%
same,"viability, T/C",[34],106%
same,"viability, T/C",[35],93.2%
same,"viability, T/C",[36],97.4%
Nc1ccn(C2OC(CO)C(O)C2(F)F)c(=O)n1 (centres undefined) + COC1C(OC(N)=O)C(O)C(Oc2ccc3c(O)c(NC(=O)c4ccc(O)c(CC=C(C)C)c4)c(=O)oc3c2C)OC1(C)C,IC50,second compound 0.0316 µM,43.7 nM
same,IC50,second compound 0.1 µM,48.2 nM
same,IC50,second compound 0.316 µM,65.4 nM
same,IC50,second compound 1 µM,58.8 nM
same,IC50,second compound 3.16 µM,68.1 nM
same,IC50,second compound 10 µM,65.8 nM
same,"viability, T/C",[1],57.1%
same,"viability, T/C",[2],31.7%
same,"viability, T/C",[3],11.5%
same,"viability, T/C",[4],9.46%
same,"viability, T/C",[5],7.57%
same,"viability, T/C",[6],6.26%
same,"viability, T/C",[7],60.2%
same,"viability, T/C",[8],32.2%
same,"viability, T/C",[9],10.7%
same,"viability, T/C",[10],8.44%
same,"viability, T/C",[11],7.41%
same,"viability, T/C",[12],6.76%
same,"viability, T/C",[13],78.4%
same,"viability, T/C",[14],33.5%
same,"viability, T/C",[15],11.3%
same,"viability, T/C",[16],8.38%
same,"viability, T/C",[17],8.35%
same,"viability, T/C",[18],5.06%
same,"viability, T/C",[19],72.4%
same,"viability, T/C",[20],31%
same,"viability, T/C",[21],12.2%
same,"viability, T/C",[22],9.87%
same,"viability, T/C",[23],6.93%
same,"viability, T/C",[24],6.4%
same,"viability, T/C",[25],75.4%
same,"viability, T/C",[26],37.3%
same,"viability, T/C",[27],9.1%
same,"viability, T/C",[28],9.44%
same,"viability, T/C",[29],10.2%
same,"viability, T/C",[30],6.39%
same,"viability, T/C",[31],72.8%
same,"viability, T/C",[32],37%
same,"viability, T/C",[33],11.5%
same,"viability, T/C",[34],11.4%
same,"viability, T/C",[35],7.42%
same,"viability, T/C",[36],5.66%
